Assay results taken from patent US9868757B2, “5-β, 14-β-androstane derivatives useful for the treatment of proteinuria, glomerulosclerosis and renal failure” (SIGMA-TAU INDUSTRIE FARMACEUTICHE RIUNITE S.p.A., priority 2009, dated 2018).
Values joined by “and” are separate entries in the source; they are usually repeats but may differ in a detail not shown here. Equal values may be shown once.

Assays:
Podocytes from NB rats = experiment: Podocyte protein quantification by Western blotting in cultured podocytes from NB rats; format: cell-based, rat
From the text: To test the activity of the compound of the invention for the prevention of loss of podocyte proteins, congenic NB rats carrying the beta adducin mutation (Tripodi G. et at Effect of Addl gene transfer on blood pressure in reciprocal congenic strains of Milan rats. BBRC 2004; 324: 562-568) were used. Said NB rats are non-hypertensive rats and are available at Prassis Research Institute, Sigma-tau, Italy.
NB rats of 7 to 10 days of age were used for podocyte isolation and culture. Podocytes from NB rats were incubated for 5 days without (NB control, n=4) and with Rostafuroxin at 10^−9M (NB n=5). Podocyte proteins were quantified at the end of the 5 days of incubation by Western blotting. The quantification by Western blot was replicated two to three times for each podocyte marker. Tables IA and IB show the final number of podocyte samples analyzed for each condition, as mean values of the replicates (NB control, n=4; NB+Rostafuroxin, n=5). The densitometric analysis was quantified as optical density, in arbitrary units.
Glomeruli were isolated from NB kidneys by sieving and further manually purification. Glomeruli were then seeded in culture flasks (Corning, Sigma-Aldrich, Milan, Italy), pre-coated with collagen type IV (Sigma-Aldrich) at 37° C. in 5% CO2 atmosphere. On days 4 to 5, podocyte growth started and, by day 8, glomeruli were detached using trypsin-EDTA. […] Podocyte protein quantification (10 μg protein/lane) was performed by Western blotting technique by using specific antibodies against nephrin, podocin, ZO-1, adducin, synaptopodin and actin.

[1] = tested on: rats chronically infused with ouabain (OS rats); experiment: Total urinary protein excretion in ouabain-infused (OS) rats; format: in vivo, rat
Experimental: (§1) To test the activity of the compound of the invention for the prevention of proteinuria and loss of renal glomerular proteins, rats chronically infused with ouabain (OS rats) or saline (Control rats) were utilized.
(§2) Two groups of 2-month-old OS rats (n=8 each) were orally treated by gavage with vehicle (Methocel 0.5%) or Rostafuroxin (100 μg/kg) for 8 weeks. One group of saline infused rats was used as control. After this period, systolic blood pressure and urinary protein excretion was measured in the three groups. The animals of the three groups were then sacrificed for nephrin quantification from renal cortex microsomes by Western blotting.
(§3) Three week-old male Sprague-Dawley rats (Harlan, Ind.), weighing 100-110 g, were subcutaneously implanted with osmotic mini-pumps, releasing either 15 μg/kg/day of ouabain (OS rats, n=16) for 14 weeks or sterile saline (CS rats, n=8) (Ferrari P. et al. J. Pharmacol Exp. Ther. 1998; 285: 83-94). […] Systolic blood pressure (SBP) and heart rate (HR) were measured weekly in conscious rats by tail-cuff plethysmography (BP recorder, U. Basile, Italy).
(§4) Urinary parameters were measured in conscious OS and control rats at the 12th week of treatment. […] After centrifugation (4500 rpm for 20 min; Varifuge 3.2 RS, Haereus Instruments, AHSI, Milan, Italy), rat urines were analyzed for the urinary volume (ml), quantified by weighing the urinary reservoir on a precision Mettler balance; urinary pH (pHM83, Radiometer, Copenhagen) and total urinary protein excretion (mg/24 h), measured with a standard total protein Kit (Sentinel Diagnostics, Milan, Italy). The animals of the three groups were then sacrificed, renal cortical microsomes were prepared from each rat and nephrin, the key protein of the slit diaphragm membrane, was quantified by Western blotting. […] Nephrin quantification is expressed as optical density, arbitrary units.

[2] = tested on: rats chronically infused with ouabain (OS rats); experiment: Systolic blood pressure by tail-cuff plethysmography in ouabain-infused (OS) rats; format: in vivo, rat
Experimental: as §1, §2
Three week-old male Sprague-Dawley rats (Harlan, Ind.), weighing 100-110 g, were subcutaneously implanted with osmotic mini-pumps, releasing either 15 μg/kg/day of ouabain (OS rats, n=16) for 14 weeks or sterile saline (CS rats, n=8) (Ferrari P. et al. J. Pharmacol Exp. Ther. 1998; 285: 83-94). At the 6th week of ouabain infusion, OS rats were randomly assigned to two groups (n=8 each): the first (OS treated) received Rostafuroxin orally at 100 μg/kg/day, suspended in 0.5% w/v Methocel, and the second group (controls) only vehicle. Systolic blood pressure (SBP) and heart rate (HR) were measured weekly in conscious rats by tail-cuff plethysmography (BP recorder, U. Basile, Italy).

[3] = tested on: rats chronically infused with ouabain (OS rats); experiment: Nephrin quantification from renal cortex microsomes of OS rats by Western blotting; format: in vivo, rat
Experimental: as §1, §2, §3, §4

[4] = NB + Rostafuroxin 10^-9M vs NB controls
[5] = NB podocytes, 5 days with Rostafuroxin 10^-9M, individual samples/replicates
[6] = NB podocytes, 5 days with Rostafuroxin 10^-9M, mean ± sem
[7] = OS rats orally treated for 8 weeks with Rostafuroxin 100 μg/kg/day, FIG. 6

C[C@]12CC[C@H](O)C[C@H]1CC[C@@H]1[C@@H]2CC[C@]2(C)[C@@](O)(c3ccoc3)CC[C@]12O [Rostafuroxin]
Actin, % vs. Ctrl. (Podocytes from NB rats; [4]): ns
Nephrin, % vs. Ctrl. (Podocytes from NB rats; [4]): +34%
Podocin, % vs. Ctrl. (Podocytes from NB rats; [4]): +60%
Synaptopodin, % vs. Ctrl. (Podocytes from NB rats; [4]): +143%
ZO-1, % vs. Ctrl. (Podocytes from NB rats; [4]): +86%
α-Adducin, % vs. Ctrl. (Podocytes from NB rats; [4]): +95%
amounts of Nephrin, ZO-1, Podocin, α-Adducin and Synaptopodin (in words) (Podocytes from NB rats; NB podocytes cultured 5 days with 10^-9M Rostafuroxin, FIG. 5): increased
Synaptopodin, optical density (Podocytes from NB rats; NB podocytes, 5 days with Rostafuroxin 10^-9M, individual samples): 2.7 arbitrary units and 2.51 arbitrary units and 4.29 arbitrary units and 1.43 arbitrary units and 2.56 arbitrary units
Actin, optical density (Podocytes from NB rats; [5]): 130.5 arbitrary units and 115 arbitrary units and 87.5 arbitrary units and 140.4 arbitrary units and 111 arbitrary units and 98 arbitrary units and 98.2 arbitrary units and 81.2 arbitrary units and 86.2 arbitrary units and 101.2 arbitrary units and 101 arbitrary units and 144.2 arbitrary units and 87.7 arbitrary units and 108 arbitrary units and 103 arbitrary units and 91.6 arbitrary units
Nephrin optical density (Podocytes from NB rats; [5]): 24.53 arbitrary units and 27.06 arbitrary units
Podocin, optical density (Podocytes from NB rats; [5]): 23.4 arbitrary units and 49.06 arbitrary units and 13.3 arbitrary units and 19.07 arbitrary units and 16.81 arbitrary units and 18.63 arbitrary units and 21.42 arbitrary units and 18.78 arbitrary units and 23.84 arbitrary units and 36.51 arbitrary units and 21.23 arbitrary units and 23.65 arbitrary units and 27.62 arbitrary units
ZO-1, optical density (Podocytes from NB rats; [5]): 6.38 arbitrary units and 7.5 arbitrary units and 8.73 arbitrary units and 13.33 arbitrary units and 15.79 arbitrary units and 11.67 arbitrary units and 16.05 arbitrary units and 19.98 arbitrary units and 12.78 arbitrary units and 19.06 arbitrary units and 20.13 arbitrary units and 17.3 arbitrary units and 17.8 arbitrary units
α-Adducin, optical density (Podocytes from NB rats; [5]): 22.23 arbitrary units and 6.06 arbitrary units and 5.70 arbitrary units and 6.77 arbitrary units and 8.06 arbitrary units and 7.53 arbitrary units and 9.33 arbitrary units and 7.07 arbitrary units
Nephrin, optical density, mean (Podocytes from NB rats; NB podocytes, 5 days with Rostafuroxin 10^-9M, mean): 25.8 arbitrary units
Actin, optical density, mean ± sem (Podocytes from NB rats; [6]): 105.3 ± 4.75 arbitrary units
Podocin, optical density, mean ± sem (Podocytes from NB rats; [6]): 24.13 ± 2.6 arbitrary units
Synaptopodin, optical density, mean ± sem (Podocytes from NB rats; [6]): 2.70 ± 0.45 arbitrary units
ZO-1, optical density, mean ± sem (Podocytes from NB rats; [6]): 14.36 ± 1.3 arbitrary units
α-Adducin, optical density, mean ± sem (Podocytes from NB rats; [6]): 9.09 ± 1.9 arbitrary units
urinary protein excretion (in words) [1, 7]: significantly reduced
Proteinuria ([1]; OS rats, 100 μg/kg os Rostafuroxin, 24-hours urine, individual rats): 55.34 mg/24 h and 29.02 mg/24 h and 39.7 mg/24 h and 40.68 mg/24 h and 20.85 mg/24 h and 48.88 mg/24 h and 53.07 mg/24 h and 20.14 mg/24 h
Proteinuria, mean ± sem ([1]; OS rats, 100 μg/kg os Rostafuroxin, 24-hours urine, n = 8): 38.5 ± 4.9, n = 8 mg/24 h
systolic blood pressure (SBP) (in words) [2, 7]: significantly reduced
Systolic blood Pressure ([2]; OS rats, 100 μg/kg os Rostafuroxin for 8 weeks, individual rats): 155 mmHg (3×) and 145 mmHg (2×) and 150 mmHg (2×) and 135 mmHg
Systolic blood Pressure, mean ± sem ([2]; OS rats, 100 μg/kg os Rostafuroxin for 8 weeks, n = 8): 148.8 ± 2.5, n = 8 mmHg
Nephrin expression from renal cortex (in words) [3, 7]: increased
Nephrin optical density ([3]; OS rats, 100 μg/kg os Rostafuroxin for 8 weeks, renal cortex microsomes, individual rats): 51.4 arbitrary units and 50.8 arbitrary units and 76.1 arbitrary units and 57.4 arbitrary units and 48.8 arbitrary units and 53.8 arbitrary units and 64.7 arbitrary units and 54.8 arbitrary units
Nephrin optical density, mean ± sem ([3]; OS rats, 100 μg/kg os Rostafuroxin for 8 weeks, renal cortex microsomes, n = 8): 57.3 ± 3.1, n = 8 arbitrary units
